Results on one compound are retold here after patent US8937065B2, “Compositions and methods for modulating a kinase” (Clevexel Pharma, priority 2011, dated 2015).

Data set [1] has as its system IL-2 stimulated PBMCs. In words: IL-2-stimulated proliferation of PBMC (Cell Titer Glo). To be noted: read-out: IC50 T cells outcome-based: IL-2 stimulated PBMCs Proliferation. The method, then: Fresh blood collection and PBMC separation assay • 1. Three donors were used to collect enough blood samples. The fresh blood was stored in Heparin Sodium tubes. • 2. Transferred blood to 50 ml centrifugal tube. 15 ml of blood was put into a tube. • 3. Added same volume of DPBS into the blood tube and mixed gently. • 4. Slowly underlayed 10 ml Ficoll using pipette (being careful to not disturb the 2 phases). • 5. Centrifuged 30 min at 800 g at RT without break. • 6. Aspirated the buffy coat (containing PBMC) at the interface between serum and ficoll. The PBMC was washed by enough DPBS and centrifuged at 900 g to remove the Ficoll. • 7. Added RPMI-1640 Medium to the collected PBMC and counted the concentration of PBMC. At least 1 million of PBMC were separated from 1 ml of blood.
IL-2-induced proliferation of PBMC by Cell Titer Glow assay • 1. Counted the PBMC numbers and adjusted cell density to 1.0*10^6/ml. • 2. Seeded cells in complete RPMI in the presence of PHA (phytohemagglutinin, 10 ug/ml). • 3. Added 100 μl of cell suspension to the 96-well plate (white) according to the planned plate map. So there were 1.0*10^5 cells in each well. Cultured for 3 days. • 4. Replaced media with complete RPMI plus IL-2, 100 units/ml and compounds, e.g compounds were added only at IL-2 incubation step. Cultured for 2 days. • 5. […] Recorded luminescence with Flexstation 3 and export the data.
In general terms: ATP-based viability assays read luminescence as a measure of living cells.

For data set [2], the target named is hERG (Homo sapiens, UniProt Q12809). Put plainly: hERG IC50.
Chain of hERG (Q12809 whole entry): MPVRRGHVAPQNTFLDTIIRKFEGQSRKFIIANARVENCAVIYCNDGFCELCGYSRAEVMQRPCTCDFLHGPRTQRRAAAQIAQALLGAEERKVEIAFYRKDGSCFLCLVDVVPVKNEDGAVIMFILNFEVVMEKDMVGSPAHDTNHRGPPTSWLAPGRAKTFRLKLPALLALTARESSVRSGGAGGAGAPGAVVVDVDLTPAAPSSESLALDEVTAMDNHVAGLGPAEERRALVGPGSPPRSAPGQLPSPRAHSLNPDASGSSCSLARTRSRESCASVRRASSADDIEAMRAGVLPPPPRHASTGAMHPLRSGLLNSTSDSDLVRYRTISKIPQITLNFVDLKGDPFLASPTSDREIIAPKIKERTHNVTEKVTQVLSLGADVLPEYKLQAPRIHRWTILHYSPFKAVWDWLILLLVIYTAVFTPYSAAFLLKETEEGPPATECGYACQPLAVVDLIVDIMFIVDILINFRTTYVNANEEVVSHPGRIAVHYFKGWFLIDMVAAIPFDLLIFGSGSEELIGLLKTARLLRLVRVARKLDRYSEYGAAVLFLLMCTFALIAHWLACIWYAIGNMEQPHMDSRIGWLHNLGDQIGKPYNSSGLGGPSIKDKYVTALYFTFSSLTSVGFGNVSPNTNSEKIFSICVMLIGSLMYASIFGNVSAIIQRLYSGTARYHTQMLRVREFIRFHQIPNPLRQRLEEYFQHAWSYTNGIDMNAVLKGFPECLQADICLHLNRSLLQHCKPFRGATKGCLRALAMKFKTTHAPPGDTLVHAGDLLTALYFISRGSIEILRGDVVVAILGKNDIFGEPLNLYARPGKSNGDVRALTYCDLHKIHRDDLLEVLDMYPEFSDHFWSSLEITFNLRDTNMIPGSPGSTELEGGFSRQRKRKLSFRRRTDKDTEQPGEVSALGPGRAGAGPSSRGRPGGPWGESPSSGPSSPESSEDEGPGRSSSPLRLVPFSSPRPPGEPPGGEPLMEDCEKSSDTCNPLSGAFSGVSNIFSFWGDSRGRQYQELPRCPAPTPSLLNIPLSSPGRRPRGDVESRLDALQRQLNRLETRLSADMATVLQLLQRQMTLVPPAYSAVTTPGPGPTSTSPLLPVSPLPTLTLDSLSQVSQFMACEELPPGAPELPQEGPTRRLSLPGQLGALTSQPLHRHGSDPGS
A short description of data set [3]: 6-day maximum tolerated dose safety study in female ICR nude mice. In kind it is in vivo. The method, then:
Compounds of the invention are safe for administration. For example, excellent safety data was obtained in a 6-day maximum tolerated dose study at 100 mg/kg and 300 mg/kg of compound 7A, PO administered to six to eight-week old female ICR nude mice.

In data set [4] the test system is Daudi cells. Put plainly: Daudi CTG assay (Daudi proliferation, 72 hr, Cell Titer Glo). Format: cell-based. The settings on record: Homo sapiens. The method, then: The compounds of the invention were tested on Daudi proliferation according to the procedure in Example 4 (for Daudi cells): Proliferation of RS4; 11, Ramos, Namalwa, RL, Molt-4 and Daudi cells. The compounds of the invention were tested on Daudi proliferation (72 hr), 3 fold dilution, and 9 points in duplicates. The top concentration for compounds of the invention was 10 uM; reference compound 7A top concentration was 10 uM; and Paclitaxel was 500 nM. Cell viability was determined using the Cell Titer Glo (CTG) reagent and detected by EnVision. EC50s were calculated by Prism 5.
The CellTiter-Glo™ Luminescent Cell Viability Assay uses ATP, a required co-factor of the luciferase reaction, as an indicator of metabolically active cells. The enzyme luciferase acts on luciferin in the presence of Mg^2+and ATP to produce oxyluciferin and to release energy in the form of luminescence. Since the luciferase reaction requires ATP, the luminescence produced is proportional to the amount of ATP present, an indicator of cellular metabolic activity.

Data set [5] deals with T1, JAK3 (Homo sapiens, UniProt P52333).
T1 construct: purchased Invitrogen, Madison, Wis
T1 sequence (P52333 1-1124): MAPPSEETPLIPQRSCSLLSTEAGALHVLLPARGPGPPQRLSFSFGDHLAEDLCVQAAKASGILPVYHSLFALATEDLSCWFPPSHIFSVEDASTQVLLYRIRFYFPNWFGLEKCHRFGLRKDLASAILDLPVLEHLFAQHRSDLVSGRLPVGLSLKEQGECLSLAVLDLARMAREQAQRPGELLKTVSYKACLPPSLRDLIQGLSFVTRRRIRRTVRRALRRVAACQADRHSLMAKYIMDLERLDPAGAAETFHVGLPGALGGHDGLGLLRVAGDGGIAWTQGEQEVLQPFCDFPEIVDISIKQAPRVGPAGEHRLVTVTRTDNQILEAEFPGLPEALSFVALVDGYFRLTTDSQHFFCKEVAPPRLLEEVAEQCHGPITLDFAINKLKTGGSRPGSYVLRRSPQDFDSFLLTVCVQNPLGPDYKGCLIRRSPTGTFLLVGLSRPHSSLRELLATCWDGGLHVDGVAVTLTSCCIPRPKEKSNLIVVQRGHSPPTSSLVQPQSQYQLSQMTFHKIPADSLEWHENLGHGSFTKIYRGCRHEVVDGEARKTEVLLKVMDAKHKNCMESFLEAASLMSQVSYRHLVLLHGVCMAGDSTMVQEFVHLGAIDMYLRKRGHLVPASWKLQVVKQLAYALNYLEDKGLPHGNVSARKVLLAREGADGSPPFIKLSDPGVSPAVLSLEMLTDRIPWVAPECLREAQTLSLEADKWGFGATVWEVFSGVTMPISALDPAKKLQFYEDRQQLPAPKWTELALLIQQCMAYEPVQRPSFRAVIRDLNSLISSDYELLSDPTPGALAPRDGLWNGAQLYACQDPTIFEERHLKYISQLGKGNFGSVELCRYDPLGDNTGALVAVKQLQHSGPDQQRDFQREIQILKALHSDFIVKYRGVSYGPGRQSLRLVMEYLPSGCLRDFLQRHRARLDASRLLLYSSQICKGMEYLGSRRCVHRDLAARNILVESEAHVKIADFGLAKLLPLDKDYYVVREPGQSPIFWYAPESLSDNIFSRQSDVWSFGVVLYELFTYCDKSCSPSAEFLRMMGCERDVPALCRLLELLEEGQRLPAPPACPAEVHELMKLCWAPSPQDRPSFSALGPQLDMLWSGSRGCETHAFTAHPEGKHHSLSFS
In words: JAK3 enzymatic activity assay (Z'-LYTE Biochemical Kinase Assay, 2 hr preincubation at 4° C.). To be noted: cell-free.

[6] abbreviates: 100 mg/kg and 300 mg/kg PO, 6-day study, female ICR nude mice.

Read-outs that look alike come from different tables or passages of the source.

As usually defined, the Ki is the dissociation constant of the complex between target and ligand, obtained from inhibition or displacement. For the compound `O=C(CN1CCOCC1)Nc1cccc(-c2nc(-c3c[nH]c(C(=O)N4CCCC4)c3)cs2)c1` [7A, 2-morpholino-N-(3-(4-(5-(pyrrolidine-1-carbonyl)-1H-pyrrol-3-yl)thiazol-2-yl)phenyl)acetamide], the IC50 in data set [1] was 3000 to 6000 nM. Also, the IC50 in data set [2] is above 10000 nM. In addition, in data set [3] (setting [6]), the “change in food consumption” value is listed as “no change in food consumption”; the clinical observation result was “no abnormalities in clinical observation”; the “necropsy (internal and external)” value is “normal”; the weight loss result is listed as “no weight loss”. Besides, in data set [3] (PO-High 300 mg/kg), the “Individual food consumption (g) Day 1” value was determined as 4.45 g and the “Individual food consumption (g) Day 6” value came out at 5.13 g. In addition, in data set [3] (PO-Low 100 mg/kg), the “Individual food consumption (g) Day 1” value turned out to be 4.61 g and the “Individual food consumption (g) Day 6” value is 5.44 g. In addition, the IC50 in data set [4] (Daudi, read-out: Daudi CTG assay IC50, historical data) worked out at 122 nM. For the same compound, in data set [4] (Daudi proliferation 72 hr, control compounds, read-out: Daudi CTG assay control IC50), the IC50 is 102 nM. Further, the affinity in data set [5] corresponds to a Ki of 0.795 µM.
